From patent US12246040B2, “Human homogeneous amniotic fluid stem cell lines and uses thereof” (priority 2018, dated 2025)

How the values were obtained:
Type in all cases: cell-based
[1] = system: homogeneous human amniotic fluid clonal stem cells; assay: In vitro osteocyte differentiation with pharmacological agent screening; details: results not shown
[2] = system: homogeneous human amniotic fluid clonal stem cells; assay: In vitro neural differentiation with pharmacological agent screening; details: neural induction 21 days; results not shown
[3] = system: homogeneous human amniotic fluid clonal stem cells; assay: In vitro chondrocyte differentiation with pharmacological agent screening; details: 21 days; results not shown

| Structure (SMILES) | effect on bone development / osteogenic differentiation [1] | effect on neural / neurological development [2] | effect on chondrogenic differentiation [3] |
| --- | --- | --- | --- |
| O=S(=O)([O-])[O-].[Mg+2] [MgSO4] | minimal or no effect | minimal or no effect | minimal or no effect |
| CCCC(CCC)C(=O)O [VPA, valproic acid] | does not affect | decreases | does not affect |
